Patent publication US9528156B2, “Method for determining the predisposition of a patient to changed biotransformation and to the development of undesired drug effects in a treatment of the patient with atrovastatin” (Robert Bosch GmbH, priority 2009, dated 2016)

Legend:
recombinant UGT1A3 = biological target: T1, recombinant UGT1A3 (Homo sapiens, UniProt P35503); settings: among various recombinant UGT enzymes; substrate 0.6 μM and 6 μM
T1 sequence (P35503 29-534): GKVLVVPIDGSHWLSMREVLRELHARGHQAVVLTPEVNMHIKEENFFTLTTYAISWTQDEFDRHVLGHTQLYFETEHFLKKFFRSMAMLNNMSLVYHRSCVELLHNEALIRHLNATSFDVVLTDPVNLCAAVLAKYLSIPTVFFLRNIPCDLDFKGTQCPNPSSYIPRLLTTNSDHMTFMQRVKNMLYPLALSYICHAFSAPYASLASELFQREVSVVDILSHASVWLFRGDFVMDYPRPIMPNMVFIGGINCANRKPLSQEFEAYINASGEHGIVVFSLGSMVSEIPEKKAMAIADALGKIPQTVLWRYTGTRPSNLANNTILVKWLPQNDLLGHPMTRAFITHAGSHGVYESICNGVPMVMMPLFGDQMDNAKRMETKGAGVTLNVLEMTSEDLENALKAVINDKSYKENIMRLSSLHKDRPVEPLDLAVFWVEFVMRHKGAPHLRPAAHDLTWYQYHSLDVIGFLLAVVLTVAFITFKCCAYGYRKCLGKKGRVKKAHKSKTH
Procedure: (§1) The reaction is started by addition of 10 mM UDP glucuronic acid, the cosubstrate of the UDP glucuronosyl transferases (UGT). The samples were incubated for 30 minutes. The reaction was stopped by addition of 25 μl of ice-cold 250 mM formic acid in acetonitrile and the vortexed samples were immediately placed on ice. […] The samples were centrifuged for 5 minutes at 13,000 rpm and placed in glass vessels for the LC/MS measurement.
(§2) The samples are separated on an XBridge Shield RP18 3.5 μm column with a C8 precolumn with a 1 mM formic acid and acetonitrile gradient for 23 minutes at 30° C. The masses are detected by HCT Esquire plus mass spectrometer, this being after electrospray ionization of the substances separated by the column.

UGT1A3 = settings: human liver microsomes, genotype-phenotype correlation
Procedure: as §1, §2

UGT1A1 = biological target: T2, UGT1A1 (Homo sapiens, UniProt P22309); assay: ATV lactonization by recombinant UGT1A1 (LC-MS); type: in vitro ADME; settings: among various recombinant UGT enzymes; substrate 0.6 μM and 6 μM
T2 sequence (P22309 26-533): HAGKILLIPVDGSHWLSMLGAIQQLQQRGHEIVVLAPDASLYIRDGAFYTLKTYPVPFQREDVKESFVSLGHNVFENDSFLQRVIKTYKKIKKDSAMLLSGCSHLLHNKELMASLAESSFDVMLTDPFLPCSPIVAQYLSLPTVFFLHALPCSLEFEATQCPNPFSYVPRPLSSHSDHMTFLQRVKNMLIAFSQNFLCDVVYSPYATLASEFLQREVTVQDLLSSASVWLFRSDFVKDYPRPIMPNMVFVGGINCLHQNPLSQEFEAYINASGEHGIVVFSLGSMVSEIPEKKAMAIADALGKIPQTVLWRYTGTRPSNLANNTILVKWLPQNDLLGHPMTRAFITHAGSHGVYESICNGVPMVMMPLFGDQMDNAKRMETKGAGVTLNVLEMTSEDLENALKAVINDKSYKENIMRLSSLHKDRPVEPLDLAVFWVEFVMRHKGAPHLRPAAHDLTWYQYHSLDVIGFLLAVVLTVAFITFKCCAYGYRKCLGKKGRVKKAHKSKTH
Procedure: as §1, §2

- specific activity for the catalysis of the ATV lactonization (recombinant UGT1A3): highest specific activity
- activity for ATV lactonization in homozygotic UGT1A3*2 carriers compared to wild type samples (UGT1A3): increased twofold
- activity for the catalysis of the ATV lactonization (UGT1A1): only low activity
Structure (SMILES): CC(C)c1c(C(=O)Nc2ccccc2)c(-c2ccccc2)c(-c2ccc(F)cc2)n1CC[C@@H](O)C[C@@H](O)CC(=O)O [atorvastatin]
